Reference: patent US20120088661A1, “FUNGICIDAL MIXTURES” (BASF SE, priority 2009, published 2012)
Read-outs that look alike come from different tables or passages of the source.

Columns and labels:
[1] = test system: Botrytis cinerea; experiment: Use Example M2: activity against the gray mold pathogen Botrytis cinerea in the microtiter test (Botrci); format: cell-based
[2] = test system: Septoria glycines; experiment: Use Example M8: activity against Septoria glycines in the microtiter test (Septgl); format: cell-based
[3] = test system: Colleotrichum truncatum; experiment: Use Example M9: activity against Colleotrichum truncatum in the microtiter test (Colltr); format: cell-based
[4] = test system: Phytophthora infestans; experiment: microbe, parasite or virus in culture; format: cell-based; settings: for inhibition of growth at 0.016 ppm: read-out: Observed effect, 0.016 ppm; for inhibition of growth at 1 ppm: read-out: Observed effect, 1 ppm
[5] = test system: Septoria tritici; experiment: Use Example G5: greenhouse, protective activity against Septoria leaf blotch of wheat caused by Septoria tritici (Septtr P1); format: in vivo, Septoria tritici on wheat seedlings
Method: (§1) The active compounds were prepared separately or jointly as a stock solution with 25 mg of active compound which was made up to 10 ml using a mixture of acetone and/or DMSO and the emulsifier Wettol EM 31 (wetting agent having emulsifying and dispersing action based on ethoxylated alkylphenols) in a volume ratio of solvent:emulsifier of 99:1. The mixture was then made up with water to 100 ml. This stock solution was diluted with the solvents/emulsifier/water mixture described to give the active compound concentrations stated below. Alternatively, the active compounds were used as commercial finished formulation and diluted with water to the stated active compound concentration. The active compound orysastrobin was used as a commercially available formulation, and diluted with water with reference to the active compound.
(§2) The visually determined values for the percentage of infected leaf area were initially converted into a mean value and then converted into efficacies in % of the untreated control. An efficacy of 0 means the same degree of infection as in the untreated control, an efficacy of 100 means 0% infection. The expected efficacies for the active compound combinations were determined using Colby's formula (Colby, S. R. “Calculating synergistic and antagonistic responses of herbicide combinations”, Weeds, 15, pp. 20-22, 1967) and compared to the observed efficacies.
Leaves of potted wheat seedlings were sprayed to run off point with an aqueous suspension having the active compound concentration stated below. 24 hours after the spray coating had dried on, they were inoculated with an aqueous spore suspension of Septoria tritici. The test plants were then placed in a greenhouse at temperatures between 18 and 22° C. and a relative atmospheric humidity close to 100% for four days and then at temperatures between 18 and 22° C. and an atmospheric humidity of about 70%. After 21 days, the extent of the development of the disease was determined visually in % infection of the total leaf area.

[6] = test system: Botrytis cinerea; experiment: Use Example G2: greenhouse, activity against grey mold on bell pepper leaves caused by Botrytis cinerea, 1 day protective application (Botrci P1); format: in vivo, Botrytis cinerea on bell pepper seedlings
Method: as §1, §2
Bell pepper seedlings were, after 2-3 leaves were well developed, sprayed to run off point with an aqueous suspension having the active compound concentrations stated below. The next day, the treated plants were inoculated with a spore suspension of Botrytis cinerea in a 2% biomalt solution. The test plants were then placed in a dark climatized chamber at 22 to 24° C. and high atmospheric humidity. After 5 days, the extent of the fungal infection on the leaves could be determined visually in %.

[7] = test system: Puccinia recondita; experiment: Use Example G3: greenhouse, protective activity against Puccinia recondita on wheat (brown rust of wheat) (Puccrt P1); format: in vivo, Puccinia recondita on wheat seedlings
Method: as §1, with “The active compound orysastrobin was used as a commercially available formulation, and diluted with water with reference to the active compound.” left out
The visually determined values for the percentage of infected leaf area were initially converted into a mean value and then converted into efficacies in % of the untreated control. […] The expected efficacies for the active compound combinations were determined using Colby's formula (Colby, S. R. “Calculating synergistic and antagonistic responses of herbicide combinations”, Weeds, 15, pp. 20-22, 1967) and compared to the observed efficacies.
Leaves of potted wheat seedlings were sprayed to run off point with an aqueous suspension having the active compound concentration stated below. […] The extent of rust fungus development on the leaves was then determined visually.

[8] = test system: Phakopsora pachyrhizi; experiment: Use Example G4: greenhouse, curative activity against soybean rust caused by Phakopsora pachyrhizi (Phakpa K4); format: in vivo, Phakopsora pachyrhizi on soybean seedlings
Method: as §1, §2
Leaves of potted soybean seedlings were inoculated with a spore suspension of soybean rust (Phakpsora pachyrhizi). The pots were then placed in a chamber of high atmospheric humidity (90 to 95%) and 20 to 24° C. for 24 hours. During this time, the spores germinated and the germ tubes penetrated into the leaf tissue. The infected plants were then cultivated further in a greenhouse at temperatures between 23 and 27° C. and 60 to 80% relative atmospheric humidity. After three days, the plants were sprayed to run off point with the active compound solution described above at the active compound concentration stated below. After the spray coating had dried on, the test plants were cultivated in a greenhouse at temperatures between 23 and 27° C. and 60 to 80% relative atmospheric humidity for a further 10 days. The extent of the rust fungus development on the leaves was then determined visually in %.

[9] = test system: Alternaria solani; format: in vivo, Alternaria solani on tomato plants; settings: 16 ppm
[10] = Septoria glycines, 0.063 ppm, read-out: Observed effect
[11] = Septoria glycines, 0.25 ppm, read-out: Observed effect
[12] = Septoria glycines, 0.016 ppm, read-out: Observed effect
[13] = Septoria glycines, read-out: Observed effect
[14] = Septoria glycines, 1 ppm, read-out: Observed effect

## 1-[trans-2-(2,4-difluorophenyl)-3-(2-fluorophenyl)oxiranylmethyl]-5-methylsulfanyl-1H-[1,2,4]triazole [Example I-6]
[1]; 4 ppm
  Observed effect: 9%

## 2-[trans-2-(3,4-difluorophenyl)-3-(2-trifluoromethylphenyl)oxiranylmethyl]-2,4-dihydro-[1,2,4]triazole-3-thione [Example I-4]
[2]; 16 ppm
  Observed effect: 5%
[2]; 63 ppm
  Observed effect: 23%
[3]; 63 ppm
  Observed effect: 26%
[4]; 63 ppm
  Observed effect: 31%

## 2-[trans-3-(2-chlorophenyl)-2-(2,4-difluorophenyl)oxiranylmethyl]-2,4-dihydro-[1,2,4]triazole-3-thione [Example I-1]
[2]; 16 ppm
  Observed effect: 30%
[2]; 63 ppm
  Observed effect: 61%
[3]; 1 ppm
  Observed effect: 5%
[3]; 16 ppm
  Observed effect: 6%
[3]; 63 ppm
  Observed effect: 30%
[5]; 4 ppm
  Observed effect: 41%
[6]; 4 ppm
  Observed effect: 2%
[4]; 1 ppm
  Observed effect: 3%
[4]; 16 ppm
  Observed effect: 14%
[4]; 63 ppm
  Observed effect: 53%

## 2-[trans-3-(2-chlorophenyl)-2-(3,4-difluorophenyl)oxiranylmethyl]-2H-[1,2,4]triazole-3-thiol [Example I-3]
[1]; 4 ppm
  Observed effect: 8%
[1]; 63 ppm
  Observed effect: 25%
[4]; 63 ppm
  Observed effect: 31%

## Fc1ccc([C@]2(Cn3cncn3)O[C@H]2c2ccccc2Cl)cc1 (racemic) [II-1, epoxiconazole]
[2]; [10]
  inhibition of growth at […]: 2%

## Cc1ccccc1[C@@H]1O[C@]1(Cn1nc[nH]c1=S)c1ccc(F)c(F)c1 (relative stereo) [Example I-2, 2-[trans-2-(3,4-difluorophenyl)-3-o-tolyloxiranylmethyl]-2,4-dihydro-[1,2,4]triazole-3-thione]
[2]; 63 ppm
  Observed effect: 40%
[3]; 63 ppm
  Observed effect: 38%

## CSc1ncnn1C[C@]1(c2ccc(F)c(F)c2)O[C@H]1c1ccccc1Cl (relative stereo) [Example I-5, 1-[trans-3-(2-chlorophenyl)-2-(3,4-difluorophenyl)oxiranylmethyl]-5-methylsulfanyl-1H-[1,2,4]triazole]
[1]; 16 ppm
  Observed effect: 9%

## CSc1ncnn1C[C@]1(c2ccc(F)cc2F)O[C@H]1c1ccccc1Cl (relative stereo) [Example I-7, 1-[trans-3-(2-chlorophenyl)-2-(2,4-difluorophenyl)oxiranylmethyl]-5-methylsulfanyl-1H-[1,2,4]triazole]
[1]; 16 ppm
  Observed effect: 25%

## N#CSc1ncnn1C[C@]1(c2ccc(F)cc2F)O[C@H]1c1ccccc1Cl (relative stereo) [Example I-8, 1-[trans-3-(2-chlorophenyl)-2-(2,4-difluorophenyl)oxiranylmethyl]-5-thiocyanato-1H-[1,2,4]triazole]
[1]; 16 ppm
  Observed effect: 19%
[4]; 4 ppm
  Observed effect: 7%

## CC1(C)CCC(Cc2ccc(Cl)cc2)C1(O)Cn1cncn1 (stereo not drawn) [II-2, metconazole]
[2]; [11]
  inhibition of growth at […]: 19%

## CC(C)(C)C(O)(CCc1ccc(Cl)cc1)Cn1cncn1 (stereo not drawn) [II-3, tebuconazole]
[6]; 1 ppm
  Observed effect: 0%

## CO/N=C(/C(=O)OC)c1ccccc1COc1ccccc1C [II-8, kresoxim-methyl]
[3]; 1 ppm
  Observed effect: 27%
[3]; 4 ppm
  Observed effect: 37%

## COC(=O)N(OC)c1ccccc1COc1ccn(-c2ccc(Cl)cc2)n1 [II-9, pyraclostrobin]
[2]; [12]
  inhibition of growth at 0.016 ppm: 69%
[1]; 0.016 ppm
  Observed effect: 8%
[3]; 0.016 ppm
  Observed effect: 7%
[4]; Phytophthora infestans
  inhibition of growth at 0.016 ppm: 13%

## CNC(=O)/C(=N/OC)c1ccccc1CO/N=C(C)/C(=N/OC)C(/C)=N/OC [II-10, orysastrobin]
[1]; 1 ppm
  Observed effect: 13%
[3]; 4 ppm
  Observed effect: 29%
[4]; 1 ppm
  Observed effect: 22%

## COCC(=O)N(c1c(C)cccc1C)C(C)C(=O)OC (stereo not drawn) [II-14, metalaxyl]
[2]; Septoria glycines, 4 ppm, read-out: Observed effect
  inhibition of growth at 4 ppm: 18%

## CC(Cc1ccc(C(C)(C)C)cc1)CN1C[C@@H](C)O[C@@H](C)C1 (stereo partly drawn) [II-15, fenpropimorph]
[2]; [13]
  inhibition of growth at 0.004 ppm: 1%
[2]; [11]
  inhibition of growth at […]: 71%
[4]; Phytophthora infestans
  inhibition of growth at 1 ppm: 26%

## CC(C)NC(=O)N1CC(=O)N(c2cc(Cl)cc(Cl)c2)C1=O [II-17, iprodione]
[2]; [14]
  inhibition of growth at 1 ppm: 0%

## N#Cc1c(Cl)c(Cl)c(Cl)c(C#N)c1Cl [II-21, chlorothalonil]
[2]; [10]
  inhibition of growth at […]: 6%
[1]; 1 ppm
  Observed effect: 40%
[5]; 4 ppm
  Observed effect: 0%

## O=C(Nc1ccccc1-c1ccc(Cl)cc1)c1cccnc1Cl [II-24, boscalid]
[2]; [12]
  inhibition of growth at 0.016 ppm: 10%
[2]; Septoria glycines, 0.04 ppm, read-out: Observed effect
  inhibition of growth at 0.04 ppm: 9%
[7]; 1 ppm
  Observed effect: 13%
[4]; Phytophthora infestans, read-out: Observed effect, 16 ppm
  inhibition of growth at 16 ppm: 20%

## Cc1ccc(C(C)NC(=O)[C@@H](NC(=O)OC(C)C)C(C)C)cc1 (stereo partly drawn) [II-35, iprovalicarb]
[2]; 1 ppm
  Observed effect: 3%

## Cc1cc(C2CC2)nc(Nc2ccccc2)n1 [II-36, cyprodinil]
[5]; 4 ppm
  Observed effect: 0%

## N#Cc1c[nH]cc1-c1cccc2c1OC(F)(F)O2 [II-38, fludioxonil]
[4]; Phytophthora infestans
  inhibition of growth at 1 ppm: 27%

## O=[N+]([O-])c1cc(C(F)(F)F)c(Cl)c([N+](=O)[O-])c1Nc1ncc(C(F)(F)F)cc1Cl [II-40, fluazinam]
[2]; [12]
  inhibition of growth at 0.016 ppm: 7%
[2]; [14]
  inhibition of growth at 1 ppm: 24%
[4]; Phytophthora infestans
  inhibition of growth at 1 ppm: 24%

## CCCN(CCOc1c(Cl)cc(Cl)cc1Cl)C(=O)n1ccnc1 [II-46, prochloraz]
[2]; [13]
  inhibition of growth at 0.001 ppm: 11%
[5]; 1 ppm
  Observed effect: 0%
[8]; 1 ppm
  Observed effect: 7%

## N#Cc1sc2c(=O)c3ccccc3c(=O)c=2sc1C#N [II-47, dithianon]
[2]; [13]
  inhibition of growth at 0.004 ppm: 3%
[2]; [12]
  inhibition of growth at 0.016 ppm: 37%
[3]; 0.016 ppm
  Observed effect: 3%

## CO/C=C(/C(=O)OC)c1ccccc1Oc1cc(Oc2ccccc2C#N)ncn1 [II-49, azoxystrobin]
[2]; 0.016 ppm
  Observed effect: 20%

## CO/N=C(/C1=NOCCO1)c1ccccc1Oc1ncnc(Oc2ccccc2Cl)c1F [II-57, fluoxastrobin]
[8]; 1 ppm
  Observed effect: 15%

## COC(=O)C(C)N(C(=O)Cc1ccccc1)c1c(C)cccc1C (stereo not drawn) [benalaxyl]
[5]; 250 ppm
  Observed effect: 0%
[9]
  Observed effect: 2%

## O=C1C2CC=CCC2C(=O)N1SC(Cl)(Cl)Cl (stereo not drawn) [captan]
[5]; 16 ppm
  Observed effect: 0%
[8]; 1 ppm
  Observed effect: 0%
[8]; 4 ppm
  Observed effect: 0%

## CCNC(=O)NC(=O)/C(C#N)=N/OC [cymoxanil]
[2]; Septoria glycines, 16 ppm, read-out: Observed effect
  inhibition of growth at 16 ppm: 27%

## OC(c1ccc(Cl)cc1)(c1cncnc1)c1ccccc1Cl (stereo not drawn) [fenarimol]
[2]; [12]
  inhibition of growth at 0.016 ppm: 11%
[2]; [14]
  inhibition of growth at 1 ppm: 39%
[4]; Phytophthora infestans
  inhibition of growth at 0.016 ppm: 5%
  inhibition of growth at 1 ppm: 28%

## COc1ccc(/C(=C\C(=O)N2CCOCC2)c2ccc(F)cc2)cc1OC [flumorph]
[2]; 16 ppm
  Observed effect: 21%

## CC(C)NC(=O)N1CC(=O)N(c2cc(Cl)cc(Cl)c2)C1=O [iprodion]
[3]; 1 ppm
  Observed effect: 9%

## mancozeb [II-18]
[5]; 16 ppm
  Observed effect: 3%
[5]; 63 ppm
  Observed effect: 18%
[9]
  Observed effect: 0%
[6]; 250 ppm
  Observed effect: 15%
[7]; 4 ppm
  Observed effect: 5%
[8]; 16 ppm
  Observed effect: 7%
[8]; 63 ppm
  Observed effect: 0%
